PubChem BioAssay AID493202 (Sanford-Burnham Center for Chemical Genomics, 2011)
Calls of active or inactive are those of the source.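 How the source made its calls: active means mean EC50 below 10 µM; inactive means the rest.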

Target: Type-1 angiotensin II receptor (Homo sapiens) (UniProt P30556)
Assay: AT1 receptor agonists, beta-arrestin recruitment, SAR follow-up, selectivity assay for APJ agonist project, cell-based, CHO-K1 PathHunter, luminescence, set 4 (AID 493202)
Details: CHO-K1 AGTR1 PathHunter beta-arrestin, 90 min

Chain of Type-1 angiotensin II receptor (Homo sapiens) (P30556 whole entry, looked up): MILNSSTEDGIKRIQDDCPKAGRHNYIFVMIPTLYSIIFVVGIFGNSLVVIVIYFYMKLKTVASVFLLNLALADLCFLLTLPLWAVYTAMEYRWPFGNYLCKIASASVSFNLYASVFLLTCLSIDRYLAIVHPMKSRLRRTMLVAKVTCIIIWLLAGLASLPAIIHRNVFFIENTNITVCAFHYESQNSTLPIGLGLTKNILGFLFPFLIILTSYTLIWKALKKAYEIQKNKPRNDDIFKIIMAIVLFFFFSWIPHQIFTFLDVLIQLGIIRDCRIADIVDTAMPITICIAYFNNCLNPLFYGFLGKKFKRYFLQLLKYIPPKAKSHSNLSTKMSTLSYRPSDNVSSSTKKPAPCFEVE

EC50, inactive:
O=S(=O)(Nc1cc(Cl)c(O)c(Cl)c1)c1ccccc1 > 79 µM
COC(=O)c1cc(NS(=O)(=O)c2ccccc2)ccc1O > 79 µM
CC1=CC(=O)C(C(C)C)=C/C1=N/OS(=O)(=O)c1ccc(OC(F)(F)F)cc1 > 79 µM
CC1=CC(=O)C(C(C)C)=C/C1=N/OS(=O)(=O)c1ccc(C(F)(F)F)cc1 > 79 µM
CC1=CC(=O)C(C(C)C)=C/C1=N/OS(=O)(=O)c1cccnc1 > 79 µM
Cc1cc(O)c(C(C)C)cc1NS(=O)(=O)c1ccccc1 > 79 µM
CC1=CC(=O)C(C(C)C)=C/C1=N/OS(=O)(=O)c1ccc(C(C)(C)C)cc1 > 79 µM
